{
  "source": "patent US6664271B1",
  "about": "“Immunopotentiator agents” (Eli Lilly and Company, priority 1999, dated 2003)",
  "key": {"[1]": {"tested_on": "mononuclear leukocytes", "assay": "mammalian T-lymphocyte blastogenesis assay, porcine (Example 75)", "type": "cell-based", "procedure": "(§1) The compound prepared in Example 30, namely (S)-ethyl 1-(2-thiopheneacetyl)-3-peridinecarboxylate, was further evaluated for in vitro T-lymphocyte blastogenic activity from mammalian species other than avian.\n(§2) The mammalian blastogenesis assays were conducted with the same protocol as the vian assays with the following exceptions:\n(§3) 1. Only mononuclear leukocytes are used for the mammalian assay. The cells are obtained from whole blood by differential centrifugation using Histopague 1.077 (Sigma Chemical Company, St. Louis, Mo).\n(§4) 2. 0.5% Fetal Bovine Serum (FBS) [GIBCOBRL, Grand Island N.Y.] is added to RPMI 1640 medium. Exception: Non-human primate plasma is used instead of FBS at 5 ml/liter to RPMI 1640 medium.\n(§5) 3. 5×10^5 cells/well were used with the mammalian assays."}, "[2]": {"tested_on": "Actinobacillus pleuropneumoniae (App) 92C", "assay": "Seeder Pig Infection Model (Example 76)", "type": "in vivo", "settings": "contact pigs", "from_the_text": "The compound prepared in Example 30, namely (S)-ethyl 1-(2-thiopheneacetyl)-3-piperidinecarboxylate, was utilized in a test formulation to investigate its efficacy to prevent or control the horizontal transmission of Actinobacillus pleuropneumoniae (App) 92C in a Seeder Pig Infection Model. The seeder pig model was chosen for the efficacy evaluation of the immunopotentiator compounds and analogs to prevent or control disease caused by App in recently weaned pigs. This model mimics a field outbreak of pneumonia in nursery pigs.\nThe animals tested were purchased from a commercial herd source known to be free of obvious disease and not recently on medication. There were a total of seventy-two (72) pigs, recently weaned and weighing in the approximate range of 15-20 pounds (6.8-9.1 kg). The challenged pigs were infected with an intranasal inoculation of Actinobacillus pleuropneumoniae (App), lyophilized #92C, a serotype 1, Iowa strain. The challenge material was a saline suspension containing a 2.5 hour log-phase growth broth culture, centrifuged and reconstituted at a concentration that contains 3×10^7 App 92C colony forming units (CFU) per pig in a 4 ml dose. An approved Animal Use Protocol governed the conduct of this trial.\nUpon arrival, the pigs were double ear-tagged and divided into contact (48) and seeder (24) pig/groups. The seeder pigs were placed in two (2) groups of twelve (12) pigs per room (Groups 1). The contact pigs were placed in (8) groups of six (6) pigs per room (Groups 2-9). Lilly swine ration, AP11 SW and water were available ad libitum. All animals were observed daily and a room record was recorded.\nDay −5 Pigs arrive for the acclimation period of a minimum of 5 days.\nDay 0 Daily individual observations of clinical impression signs begin and continue throughout the experiment. These were scored on a 0 to 3 scale (0=normal: alert, responsive; 1=slight: dyspnea, rough coat, slow to react; 2=moderate: lethargic, rough coat, breathing difficulty; 3=severe: unresponsive, breathing distress (open mouth).\nDay 0 Individual animal weights of the contacts were taken.\nDay 0 2 hours prior to infection of the seeder pigs, the contact pigs were injected via the intraperitoneal route with the test formulations. Two (2) rooms of six (6) pigs were treated with each of the following dose levels: 0 μg/pig, 125 μg/pig, 250 μg/pig, and 500 μg/pig.\nDay 0 Twenty-four (24) seeder pigs were challenged with a dose containing […] CFU of Actinobacillus pleuropneumoniae (App) 92C inoculum. The infected seeder pigs were then placed, 3 pigs per room, with the 6 treated contact pigs. To maximize the horizontal transmission of App, the living space in the rooms was reduced from 120 sq. ft. to 60 sq. ft., by placing partitions in the rooms.\nDay +3 to +5 The seeder pigs were removed from all rooms. The pigs were euthanized, lung pathology was determined and lung cultures were taken. Moribund animals were euthanized. Any animals that succumbed to infection while on test were necropsied, lung lesions were scored and a sample was taken for bacterial isolation.\nDay +14 The experiment was terminated. The contact pigs (Groups 2-9) were weighed, euthanized, and necropsied, with lung lesion scoring and bacterial culture assessment.\nThe test formulations were in an Acetate Buffered Saline vehicle. Samples were analyzed for potency. Data obtained was analyzed for weight gain, mortality, clinical impression scores, lung lesions, and bacteriologic recovery. Statistics were performed as appropriate to detect differences between groups."}, "[3]": {"tested_on": "mononuclear leukocytes", "assay": "mammalian T-lymphocyte blastogenesis assay, bovine (Example 75)", "type": "cell-based", "procedure": "as §1, §2, §3, §4, §5"}, "[4]": {"tested_on": "E. coli", "assay": "colibacillosis infection model in broiler chickens, Trial B (Example 78)", "type": "in vivo, chicken"}},
  "note": "Marks after values point to notes of the source that are not given here.",
  "data": [
    {"smiles": "CCOC(=O)[C@H]1CCCN(C(=O)Cc2cccs2)C1", "note": "[Example 30, (S)-Ethyl 1-(2-Thiopheneacetyl)-3-piperidinecarboxylate]", "values": [
      {"measurement": "MSC", "setting": "[1]", "value": 10, "unit": "μg μg/ml"},
      {"measurement": "MTC", "setting": "[1]", "value": 1, "unit": "mg/mL"},
      {"measurement": "% Lung Consolidation", "setting": "[2]; 125 μg/pig intraperitoneal", "value": 14.0, "unit": "%"},
      {"measurement": "% Lung Lesions", "setting": "[2]; 125 μg/pig intraperitoneal", "value": 41.5, "unit": "%"},
      {"measurement": "% Mortality", "setting": "[2]; 125 μg/pig intraperitoneal", "value": 16.6, "unit": "%"},
      {"measurement": "App Reisolation", "setting": "[2]; 125 μg/pig intraperitoneal", "value": 41.5},
      {"measurement": "% Lung Consolidation", "setting": "[2]; 250 μg/pig intraperitoneal", "value": 0.44, "unit": "%"},
      {"measurement": "% Lung Lesions", "setting": "[2]; 250 μg/pig intraperitoneal", "value": "0* %"},
      {"measurement": "% Mortality", "setting": "[2]; 250 μg/pig intraperitoneal", "value": 0, "unit": "%"},
      {"measurement": "App Reisolation", "setting": "[2]; 250 μg/pig intraperitoneal", "value": "0*"},
      {"measurement": "% Lung Consolidation", "setting": "[2]; 500 μg/pig intraperitoneal", "value": 4.0, "unit": "%"},
      {"measurement": "% Lung Lesions", "setting": "[2]; 500 μg/pig intraperitoneal", "value": 42.0, "unit": "%"},
      {"measurement": "% Mortality", "setting": "[2]; 500 μg/pig intraperitoneal", "value": 0, "unit": "%"},
      {"measurement": "App Reisolation", "setting": "[2]; 500 μg/pig intraperitoneal", "value": 42},
      {"measurement": "MSC", "setting": "[3]", "value": 10, "unit": "μg μg/ml"},
      {"measurement": "MTC", "setting": "[3]", "value": 1, "unit": "mg/mL"},
      {"measurement": "% Colibacillosis-associated Mortality", "setting": "[4]; 2 μg/chick subcutaneous", "value": 5, "unit": "%"},
      {"measurement": "Average Weight Gain/Bird (lbs)", "setting": "[4]; 2 μg/chick subcutaneous", "value": "2.53 lb (1.15 kg)"},
      {"measurement": "Feed/Gain", "setting": "[4]; 2 μg/chick subcutaneous", "value": 1.56},
      {"measurement": "% Colibacillosis-associated Mortality", "setting": "[4]; 12.5 μg/chick subcutaneous", "value": "2.8* %"},
      {"measurement": "% Total Mortality", "setting": "[4]; 12.5 μg/chick subcutaneous", "value": "10* %"},
      {"measurement": "Average Weight Gain/Bird (lbs)", "setting": "[4]; 12.5 μg/chick subcutaneous", "value": "2.44 lb (1.11 kg)"},
      {"measurement": "Feed/Gain", "setting": "[4]; 12.5 μg/chick subcutaneous", "value": 1.59},
      {"measurement": "% Colibacillosis-associated Mortality", "setting": "[4]; 25 μg/chick subcutaneous", "value": 6.8, "unit": "%"},
      {"measurement": "% Total Mortality", "setting": "[4]; 25 μg/chick subcutaneous", "value": 14.3, "unit": "%"},
      {"measurement": "Average Weight Gain/Bird (lbs)", "setting": "[4]; 25 μg/chick subcutaneous", "value": "2.49 lb (1.13 kg)"},
      {"measurement": "Feed/Gain", "setting": "[4]; 25 μg/chick subcutaneous", "value": 1.57}
    ]}
  ]
}
